{"source": "patent US10273226B2", "about": "“Pyrazolyl-heteroarylamides as pesticides” (Bayer Animal Health GmbH, priority 2014, dated 2019)", "format_in_all_cases": "in vivo", "key": {"[1]": {"tested_on": "Musca domestica", "assay": "Musca domestica test", "conditions": "application rate 100 ppm; adult houseflies; after 2 days", "outline": "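Percent kill of adult houseflies is recorded 2 days after exposure, where 100% denotes all flies dead and 0% none. Flies (10 per vessel) feed from a sponge carrying sugar solution and the aqueous-diluted DMSO formulation.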"}, "[2]": {"tested_on": "Ctenocephalides felis", "assay": "Ctenocephalides felis oral test", "conditions": "application rate 100 ppm in citrated cattle blood; after 2 days", "outline": "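Mortality in % was recorded 2 days after about 20 unfed adult cat fleas were allowed to imbibe citrated cattle blood containing the active ingredient through a parafilm membrane. The compound was first taken up in DMSO and then diluted with the blood to the desired concentration.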"}, "[3]": {"tested_on": "Aedes aegypti strain MONHEIM", "assay": "Aedes test (AEDSAE surface treatment)", "conditions": "24 hours after contact, read-out: efficacy (mortality in %)", "method": "Aedes Test (AEDSAE Surface Treatment)\n(§1) Solvent: acetone+2000 ppm rapeseed oil methyl ester (RME)\n(§2) To produce an appropriate active ingredient formulation, the active ingredient is dissolved in the solvent (2 mg/ml). The active ingredient formulation is pipetted onto a glazed tile and, after it has dried off, adult mosquitoes of the species Aedes aegypti strain MONHEIM are placed onto the treated tile. The exposure time is 30 minutes.\n(§3) 24 hours after contact with the treated surface, mortality in % is determined. 100% means that all the mosquitoes have been killed; 0% means that none of the mosquitoes have been killed."}, "[4]": {"tested_on": "Anopheles funestus strain FUMOZ-R", "assay": "Anopheles test (ANPHFU surface treatment)", "conditions": "24 hours after contact, read-out: efficacy (mortality in %)", "method": "Anopheles Test (ANPHFU Surface Treatment)\nas §1\nas §2, with “Anopheles funestus” for “Aedes aegypti”, “FUMOZ-R (Hunt et al., Med Vet Entomol. 2005 September; 19 (3):271-5)” for “MONHEIM”\nas §3"}, "[5]": {"tested_on": "Phaedon cochleariae", "assay": "Phaedon cochleariae spray test", "conditions": "application rate 100 g/ha; larvae; after 7 days", "outline": "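Chinese cabbage leaf discs were sprayed with the compound formulated in water containing 1000 ppm emulsifier. After drying, they were infested with mustard beetle larvae. Efficacy was scored as % larvae killed after 7 days (100% = all dead, 0% = none).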"}, "[6]": {"tested_on": "Boophilus microplus Parkhurst strain, SP-resistant", "assay": "Boophilus microplus dip test", "conditions": "application rate 100 ppm, assessed after 7 days", "method": "Boophilus microplus—Dip Test\nTest animals: cattle ticks (Boophilus microplus) Parkhurst strain, SP-resistant\nSolvent: dimethyl sulphoxide\n10 mg of active ingredient are dissolved in 0.5 ml of dimethyl sulphoxide. For the purpose of producing a suitable formulation, the active ingredient solution is diluted with water to the concentration desired in each case.\nThis active ingredient formulation is pipetted into tubes. 8-10 adult engorged female cattle ticks (Boophilus microplus) are transferred into a further tube with holes. The tube is immersed into the active ingredient formulation, and all the ticks are completely wetted. After the liquid has run out, the ticks are transferred on filter discs into plastic dishes and stored in a climate-controlled room.\nEfficacy is assessed after 7 days by laying of fertile eggs. Eggs which are not visibly fertile are stored in a climate-controlled cabinet until the larvae hatch after about 42 days. An efficacy of 100% means that none of the ticks has laid any fertile eggs; 0% means that all the eggs are fertile."}, "[7]": {"tested_on": "Ctenocephalides felis", "assay": "Ctenocephalides felis in vitro contact test with adult cat fleas", "conditions": "application rate 5 μg/cm^2 (500 g/ha); after 48 h; fleas dead or moribund", "outline": "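Test tubes were coated with 250 μl acetone solution of compound, giving 5 μg/cm^2 at 900 ppm, then dried and stocked with 5-10 adult cat fleas. After 48 h at room temperature and ambient humidity, dead or moribund fleas were counted; efficacy given as % (100% = all dead or moribund).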"}, "[8]": {"tested_on": "Boophilus microplus", "assay": "Boophilus microplus injection test", "conditions": "application rate 20 μg/animal; injection into abdomen; assessed after 7 days", "outline": "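Engorged adult female Boophilus microplus ticks (5 per dose) each received a 1 μl abdominal injection of compound in DMSO and were held in a climate-controlled room. Efficacy was scored after 7 days from fertile egg laying, with unclear eggs kept until hatching (~42 days); 100% means no fertile eggs.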"}, "[9]": {"tested_on": "Myzus persicae", "assay": "Myzus persicae spray test", "conditions": "application rate 100 g/ha; after 6 days", "outline": "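Chinese cabbage leaf discs infested with all stages of green peach aphid were sprayed with compound formulated in solvent and water containing 1000 ppm emulsifier. Percent kill was assessed after 6 days, where 100% means all aphids dead and 0% none dead.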"}, "[10]": {"conditions": "application rate 20 mg/m^2, exposure 30 minutes"}, "[11]": {"conditions": "application rate 100 mg/m^2, exposure 30 minutes"}}, "data": [{"compound": "Cn1nc(C(F)(F)C(F)(F)F)c(C(F)(F)F)c1-n1cc(-c2cccc(NC(=O)c3ccncc3)c2)cn1", "note": "[Example 1-001, N-{3-[2′-Methyl-5′-(pentafluoroethyl)-4′-(trifluoromethyl)-2′H-1,3′-bipyrazol-4-yl]-phenyl}isonicotinamide]", "values": [{"measurement": "efficacy (kill in %)", "setting": "[1]", "result": 100, "unit": "%"}, {"measurement": "efficacy (kill in %)", "setting": "[2]", "result": 100, "unit": "%"}, {"measurement": "mortality at 20 mg/m2", "setting": "[3]; [10]", "result": "90 to 100", "unit": "%"}, {"measurement": "mortality at 100 mg/m2", "setting": "[3]; [11]", "result": "90 to 100", "unit": "%"}, {"measurement": "mortality at 20 mg/m2", "setting": "[4]; [10]", "result": "90 to 100", "unit": "%"}, {"measurement": "mortality at 100 mg/m2", "setting": "[4]; [11]", "result": "90 to 100", "unit": "%"}, {"measurement": "efficacy", "setting": "[5]", "result": 100, "unit": "%"}, {"measurement": "efficacy (laying of fertile eggs)", "setting": "[6]", "result": 95, "unit": "%"}, {"measurement": "efficacy", "setting": "[7]", "result": 100, "unit": "%"}, {"measurement": "efficacy (laying of fertile eggs)", "setting": "[8]", "result": 100, "unit": "%"}, {"measurement": "efficacy", "setting": "[9]", "result": 100, "unit": "%"}]}]}
